Measured values: patent US10875876B2, “Cyclized sulfamoylarylamide derivatives and the use thereof as medicaments for the treatment of hepatitis B” (priority 2015, dated 2020)
Read-outs that look alike come from different tables or passages of the source.

Tests used:
HBV = test: anti HBV activity, HepG2.117 cell line, intracellular HBV DNA by realtime PCR; assay type: cell-based; settings: HepG2.117 cell line (Tet-off), 3 days of treatment, intracellular HBV DNA quantified by realtime PCR, read-out: HBV-AVE-HepG2.117 EC50
In short: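 Readout was intracellular HBV DNA by real-time PCR (HBV-specific primers and probe) after 3 days of compound exposure. Serial dilutions were tested in duplicate on HepG2.117 cells, a stable inducible HBV producer in which replication is switched on when doxycycline is absent.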

HepG2 cells = test: Cytotoxicity in HepG2 cells, Resazurin assay; settings: read-out: TOX-HepG2-4 d CC50; HepG2 cells incubated for 4 days, viability by Resazurin assay
[1] = Cytotoxicity in HepG2 cells, Resazurin assay; settings: human, HepG2 cells, TOX-HepG2-4 d CC50 (μM), HepG2 cells incubated for 4 days, viability by Resazurin assay
[2] = Hepatitis B virus, HepG2.117, 72 h

Structure (SMILES): CC1C=Cc2c(cn(C)c2C(=O)Nc2ccc(F)c(F)c2)S(=O)(=O)N1 (single isomer, unassigned) [Compound 7b, N-(3,4-difluorophenyl)-3,7-dimethyl-1,1-dioxo-2,3-dihydropyrrolo-[3,4-f]thiazepine-6-carboxamide]
- EC50 (HBV): 7 nM
- CC50 (HepG2 cells): > 25000 nM

Structure (SMILES): CC1CCc2c(cn(C)c2C(=O)Nc2ccc(F)c(F)c2)S(=O)(=O)N1 (single isomer, unassigned) [Compound 10b, N-(3,4-difluorophenyl)-3,7-dimethyl-1,1-dioxo-2,3,4,5-tetrahydropyrrolo[3,4-f]thiazepine-6-carboxamide]
- EC50 (HBV): 6 nM
- CC50 (HepG2 cells): > 25000 nM

Structure (SMILES): CC1COc2c(cn(C)c2C(=O)Nc2ccc(F)c(F)c2)S(=O)(=O)N1 (single isomer, unassigned) [Compound 14b, N-(3,4-difluorophenyl)-3,7-dimethyl-1,1-dioxo-3,4-dihydro-2H-pyrrolo-[3,4-b][1,4,5]oxathiazepine-6-carboxamide]
- EC50 (HBV): 78 nM
- CC50 (HepG2 cells): > 25000 nM

Structure (SMILES): CC1C/C=C\c2c(cn(C)c2C(=O)Nc2ccc(F)c(F)c2)S(=O)(=O)N1 (single isomer, unassigned) [Compound 15b, (5Z)—N-(3,4-difluorophenyl)-3,8-dimethyl-1,1-dioxo-3,4-dihydro-2H-pyrrolo[3,4-g]thiazocine-7-carboxamide]
- EC50 (HBV): > 500 nM
- CC50 (HepG2 cells): > 25000 nM

Structure (SMILES): Cn1cc2c(c1C(=O)Nc1ccnc(C(F)(F)F)c1)CCC(C(F)(F)F)NS2(=O)=O (single isomer, unassigned) [Compound 59b, 7-methyl-1,1-dioxo-3-(trifluoromethyl)-N-[2-(trifluoromethyl)-4-pyridyl]-2,3,4,5-tetrahydropyrrolo[3,4-f]thiazepine-6-carboxamide]
- EC50 (HBV): 140 nM
- CC50 (HepG2 cells): > 25000 nM

Structure (SMILES): Cn1cc2c(c1C(=O)Nc1ccc(F)c(C#N)c1)CCC(C(F)(F)F)NS2(=O)=O (single isomer, unassigned) [Compound 60b, N-(3-cyano-4-fluoro-phenyl)-7-methyl-1,1-dioxo-3-(trifluoromethyl)-2,3,4,5-tetrahydropyrrolo[3,4-f]thiazepine-6-carboxamide]
- EC50 (HBV): 5 nM
- CC50 (HepG2 cells): > 25000 nM

Structure (SMILES): CC(C)C1C=Cc2c(cn(C)c2C(=O)Nc2ccc(F)c(F)c2)S(=O)(=O)N1 (single isomer, unassigned) [Compound 79b, N-(3,4-difluorophenyl)-3-isopropyl-7-methyl-1,1-dioxo-2,3-dihydropyrrolo[3,4-f]thiazepine-6-carboxamide]
- EC50 (HBV): 2 nM
- CC50 (HepG2 cells): > 25000 nM

Structure (SMILES): Cn1cc2c(c1C(=O)Nc1ccc(F)c(F)c1)OCC(C1CCOCC1)NS2(=O)=O (single isomer, unassigned) [Compound 89b, N-(3,4-difluorophenyl)-7-methyl-1,1-dioxo-3-tetrahydropyran-4-yl-3,4-dihydro-2H-pyrrolo[3,4-b][1,4,5]oxathiazepine-6-carboxamide]
- EC50 (HBV): 17 nM
- CC50 (HepG2 cells): > 25000 nM

Structure (SMILES): Cn1cc2c(c1C(=O)Nc1ccc(F)c(F)c1)OC[C@@H](C(O)C1CC1)NS2(=O)=O (single isomer, unassigned) [Compound 92b]
- EC50 (HBV): 170 nM
- CC50 (HepG2 cells): > 25000 nM

Structure (SMILES): Cc1cc(CC2(C)COc3c(cn(C)c3C(=O)Nc3ccc(F)c(C(F)F)c3)S(=O)(=O)N2)n(C)n1 (single isomer, unassigned) [Compound 176b, N-[3-(difluoromethyl)-4-fluoro-phenyl]-3-[(2,5-dimethylpyrazol-3-yl)methyl]-3,7-dimethyl-1,1-dioxo-2,4-dihydropyrrolo[3,4-b][1,4,5]oxathiazepine-6-carboxamide]
- CC50 (HepG2 cells): > 25000 nM

Structure (SMILES): Cn1cc2c(c1C(=O)Nc1ccc(F)c(C(F)F)c1)OC[C@](C)(c1ccccn1)NS2(=O)=O [Compound 169, (3S)—N-[3-(difluoromethyl)-4-fluoro-phenyl]-3,7-dimethyl-1,1-dioxo-3-(2-pyridyl)-2,4-dihydropyrrolo[3,4-b][1,4,5]oxathiazepine-6-carboxamide]
- EC50 (HBV; [2]): 17 nM
- CC50 at 4 days [1]: > 25 µM
- melting point: 208.8 °C

Structure (SMILES): Cn1cc2c(c1C(=O)Nc1ccc(F)c(F)c1)OCC(C)(Cc1ccc(Br)nc1)NS2(=O)=O (stereo not shown) [Compound 171, 3-[(6-bromo-3-pyridyl)methyl]-N-(3,4-difluorophenyl)-3,7-dimethyl-1,1-dioxo-2,4-dihydropyrrolo[3,4-b][1,4,5]oxathiazepine-6-carboxamide]
- EC50 (HBV; [2]): 8 nM
- CC50 at 4 days [1]: > 25 µM
- melting point: 259.2 °C

Structure (SMILES): Cn1ccnc1CC1(C)COc2c(cn(C)c2C(=O)Nc2ccc(F)c(F)c2)S(=O)(=O)N1 (stereo not shown) [Compound 173, N-(3,4-difluorophenyl)-3,7-dimethyl-3-[(1-methylimidazol-2-yl)methyl]-1,1-dioxo-2,4-dihydropyrrolo[3,4-b][1,4,5]oxathiazepine-6-carboxamide]
- EC50 (HBV; [2]): 17 nM
- CC50 at 4 days [1]: > 25 µM
- melting point: 297.1 °C

Structure (SMILES): Cn1cncc1CC1(C)COc2c(cn(C)c2C(=O)Nc2ccc(F)c(F)c2)S(=O)(=O)N1 (stereo not shown) [Compound 174, N-(3,4-difluorophenyl)-3,7-dimethyl-3-[(3-methylimidazol-4-yl)methyl]-1,1-dioxo-2,4-dihydropyrrolo[3,4-b][1,4,5]oxathiazepine-6-carboxamide]
- EC50 (HBV; [2]): 7 nM
- CC50 at 4 days [1]: > 25 µM
- melting point: 265.5 °C

Structure (SMILES): Cn1cc2c(c1C(=O)Nc1ccc(F)c(Br)c1F)CCC(C(C)(C)O)NS2(=O)=O (stereo not shown) [Compound 179, N-(3-bromo-2,4-difluoro-phenyl)-3-(1-hydroxy-1-methyl-ethyl)-7-methyl-1,1-dioxo-2,3,4,5-tetrahydropyrrolo[3,4-f]thiazepine-6-carboxamide]
- EC50 (HBV; [2]): 21 nM
- CC50 at 4 days [1]: > 25 µM
- melting point: 236.8 °C

Structure (SMILES): Cn1cc2c(c1C(=O)Nc1ccc(F)c(Cl)c1)OC[C@H](C(C)(C)O)NS2(=O)=O [Compound 180, (3R)—N-(3-chloro-4-fluoro-phenyl)-3-(1-hydroxy-1-methyl-ethyl)-7-methyl-1,1-dioxo-3,4-dihydro-2H-pyrrolo[3,4-b][1,4,5]oxathiazepine-6-carboxamide]
- EC50 (HBV; [2]): 5 nM
- CC50 at 4 days [1]: > 25 µM
- melting point: 234.1 °C

Structure (SMILES): Cn1cc2c(c1C(=O)Nc1ccc(F)c(C(F)F)c1F)OC[C@H](C(C)(C)O)NS2(=O)=O [Compound 182, (3R)—N-[3-(difluoromethyl)-2,4-difluoro-phenyl]-3-(1-hydroxy-1-methyl-ethyl)-7-methyl-1,1-dioxo-3,4-dihydro-2H-pyrrolo[3,4-b][1,4,5]oxathiazepine-6-carboxamide]
- EC50 (HBV; [2]): 10 nM
- CC50 at 4 days [1]: > 25 µM
- melting point: 182.1 °C

Structure (SMILES): Cn1ccnc1CC1(C)COc2c(cn(C)c2C(=O)Nc2ccc(F)c(C(F)F)c2)S(=O)(=O)N1 (stereo not shown) [Compound 187, N-[3-(difluoromethyl)-4-fluoro-phenyl]-3,7-dimethyl-3-[(1-methylimidazol-2-yl)methyl]-1,1-dioxo-2,4-dihydropyrrolo[3,4-b][1,4,5]oxathiazepine-6-carboxamide]
- EC50 (HBV; [2]): 3 nM
- CC50 at 4 days [1]: > 25 µM
- melting point: 282.8 °C

Structure (SMILES): C[C@H](O)[C@H]1CCc2c(cn(C)c2C(=O)Nc2ccc(F)c(C(F)F)c2F)S(=O)(=O)N1 [Compound 188, (3R)—N-[3-(difluoromethyl)-2,4-difluoro-phenyl]-3-[(1S)-1-hydroxyethyl]-7-methyl-1,1-dioxo-2,3,4,5-tetrahydropyrrolo[3,4-f]thiazepine-6-carboxamide]
- EC50 (HBV; [2]): 11 nM
- CC50 at 4 days [1]: > 25 µM
- melting point: 277.1 °C

Structure (SMILES): Cn1cc2c(c1C(=O)Nc1ccc(F)c(F)c1)OCC(C)(Cc1ccnc(Cl)c1)NS2(=O)=O (stereo not shown) [Compound 190, 3-[(2-chloro-4-pyridyl)methyl]-N-(3,4-difluorophenyl)-3,7-dimethyl-1,1-dioxo-2,4-dihydropyrrolo[3,4-b][1,4,5]oxathiazepine-6-carboxamide]
- EC50 (HBV; [2]): 6 nM
- CC50 at 4 days [1]: > 25 µM
- melting point: 225 °C

Structure (SMILES): Cn1cc2c(c1C(=O)Nc1ccc(F)c(F)c1)OCC(C)(Cc1ccncc1)NS2(=O)=O (stereo not shown) [Compound 191, N-(3,4-difluorophenyl)-3,7-dimethyl-1,1-dioxo-3-(4-pyridylmethyl)-2,4-dihydropyrrolo[3,4-b][1,4,5]oxathiazepine-6-carboxamide]
- EC50 (HBV; [2]): 10 nM
- CC50 at 4 days [1]: > 25 µM
- melting point: 276 °C

Structure (SMILES): C[C@H](O)[C@H]1CCc2c(cn(C)c2C(=O)Nc2ccc(F)c(Cl)c2)S(=O)(=O)N1 [Compound 193, (3R)—N-(3-chloro-4-fluoro-phenyl)-3-[(1S)-1-hydroxyethyl]-7-methyl-1,1-dioxo-2,3,4,5-tetrahydropyrrolo[3,4-f]thiazepine-6-carboxamide]
- EC50 (HBV; [2]): 6 nM
- CC50 at 4 days [1]: > 25 µM
- melting point: 290.8 °C

Structure (SMILES): C[C@H](O)[C@H]1C=Cc2c(cn(C)c2C(=O)Nc2ccc(F)c(Cl)c2)S(=O)(=O)N1 [Compound 194, (3R)—N-(3-chloro-4-fluoro-phenyl)-3-[(1S)-1-hydroxyethyl]-7-methyl-1,1-dioxo-2,3-dihydropyrrolo[3,4-f]thiazepine-6-carboxamide]
- EC50 (HBV; [2]): 6 nM
- CC50 at 4 days [1]: > 25 µM
- melting point: 211.3 °C

Structure (SMILES): Cn1cc2c(c1C(=O)Nc1ccc(F)c(Cl)c1)OCC(C)(Cc1cccnc1)NS2(=O)=O (stereo not shown) [Compound 211, N-(3-chloro-4-fluoro-phenyl)-3,7-dimethyl-1,1-dioxo-3-(3-pyridylmethyl)-2,4-dihydropyrrolo[3,4-b][1,4,5]oxathiazepine-6-carboxamide]
- EC50 (HBV; [2]): 7 nM
- CC50 at 4 days [1]: > 25 µM
- melting point: 211.5 °C
